Data on 17 compounds can be found in patent US9045468B2, “2,5-methano- and 2,5-ethano-tetrahydrobenzazepine derivatives and use thereof to block reuptake of norepinephrine, dopamine, and serotonin” (Albany Molecular Research, Inc., priority 2010, dated 2015).

SMILES strings stand for the structures. Where two headings read alike, the source gives them in different places.

Test [1] has as its target hNET (Homo sapiens (Human), UniProt P23975). Put plainly: NET radioligand binding assay ([3H]nisoxetine, HEK-293 membranes). The protocol: (§1) The medium was removed from the flasks and the cells rinsed with HBSS without Ca and without Mg. The cells were then incubated for 5-10 minutes in 10 mM Tris-Cl, pH 7.5, 5 mM EDTA before the cells were lifted with a combination of pipetting and scraping, as needed. The cell suspension was collected into centrifuge bottles and homogenized for 30 seconds with a Polytron homogenizer. The suspension was centrifuged for 30 minutes at 32,000×g, 4° C. The supernatant was decanted and the pellet resuspended and homogenized in 50 mM Tris-Cl, pH 7.5, 1 mM EDTA for 10 seconds. The suspension was then centrifuged again for 30 minutes at 32,000×g, 4° C. The supernatant was decanted and the pellet resuspended in 50 mM Tris-Cl, pH 7.5, 1 mM EDTA and briefly homogenized. A Bradford assay (Bio-rad) was performed and the membrane preparation diluted to 2 mg/ml with 50 mM Tris-Cl, pH 7.5, 1 mM EDTA. Aliquots were prepared, and then frozen and stored at −80° C.
Compounds were dissolved in 100% DMSO at a concentration 100 times the desired highest assay concentration, serially diluted 1:3 in 100% DMSO, and 1.0 μl/well of each solution was dispensed to a Nunc polypropylene, round bottom, 384-well plate. […] 50 μl/well of a 2× membrane preparation (0.4 mg/ml in 50 mM Tris-Cl, pH 7.5, 120 mM NaCl, 5 mM KCl) and 50 μl/well of a 2× radioligand solution (4 nM [^3H]nisoxetine in 50 mM Tris-Cl, pH 7.5, 120 mM NaCl, 5 mM KCl) were added to the well and the reaction incubated for 1 hour at room temperature. The contents of the assay plate were then transferred to a Millipore MultiscreenHTS GF/B filter plate which was pretreated with 0.5% PEI for at least one hour. The plate was vacuum filtered and washed with 7 washes of 100 μl/well 50 mM Tris-Cl, pH 7.5, 120 mM NaCl, 5 mM KCl chilled to 4° C. The filtration and washing were completed in less than 90 seconds. The plates were air-dried overnight, 12 μl/well of MicroScint scintillation fluid added, and the plates counted in a Trilux.
(§2) Each plate was run in triplicate, and the concentration response curve thus generated was fit using the four-parameter dose response equation, Y=Bottom+(Top-Bottom)/(1+10^((Log IC50−X)*HillSlope)) in order to determine the IC50 value for each compound. The radioligand concentration chosen for each assay corresponds to the Kd concentration determined through saturation binding analysis for each assay.

For test [2], the target named is hSERT (Homo sapiens (Human), UniProt P31645). Put plainly: SERT radioligand binding assay ([125I]RTI-55, HEK-293 membranes). The protocol:
as §1
Compounds were dissolved in 100% DMSO at a concentration 100 times the desired highest assay concentration, serially diluted 1:3 in 100% DMSO, and 0.4 μl/well of each solution was dispensed to a Nunc polypropylene, round bottom, 384-well plate. […] The contents of the assay plate were then transferred to a Millipore MultiscreenHTS GF/B filter plate which was pretreated with 0.5% PEI for at least one hour. The plate was vacuum filtered and washed with 7 washes of […] 50 mM Tris-Cl, pH 7.5, 120 mM NaCl, 5 mM KCl chilled to 4° C. The filtration and washing were completed in less than 90 seconds. The plates were air-dried overnight, 12 μl/well of MicroScint scintillation fluid added, and the plates counted in a Trilux.
as §2

The target of test [3] is hDAT (Homo sapiens (Human), UniProt Q01959). The test is described as follows: DAT radioligand binding assay ([125I]RTI-55, HEK-293 membranes). Conditions: recombinant HEK-293 membranes, [125I]RTI-55; read-out: Binding Affinity (IC50, nM) DAT. The protocol: as §1, with “Recombinant HEK-293 cells expressing either the hSERT, hDAT, or hNET proteins were harvested from T-175 flasks as follows. The medium” for “The medium”
Compounds were dissolved in 100% DMSO at a concentration 100 times the desired highest assay concentration, serially diluted 1:3 in 100% DMSO, and 0.4 μl/well of each solution was dispensed to a Nunc polypropylene, round bottom, 384-well plate. […] 20 ul/well of a 2× membrane preparation (12.5 μg/ml in 30 mM sodium phosphate buffer, pH 7.9 at 4° C.) and 20 μl/well of a 2× radioligand solution (250 pM [^125I]RTI-55 in 30 mM sodium phosphate buffer, pH 7.9 at 4° C.) were added to the well and the reaction incubated for 1 hour at room temperature. The contents of the assay plate were then transferred to a Millipore MultiscreenHTS GF/B filter plate which was pretreated with 0.5% PEI for at least one hour. The plate was vacuum-filtered and washed with 7 washes of 100 μl/well 50 mM Tris-Cl, pH 7.5, 120 mM NaCl, 5 mM KCl chilled to 4° C. The filtration and washing were completed in less than 90 seconds. The plates were air-dried overnight, 12 μl/well of MicroScint scintillation fluid added, and the plates counted in a Trilux.
as §2

The mark [4] stands for this setting: recombinant HEK-293 membranes, [3H]nisoxetine, read-out: Binding Affinity (IC50, nM) NET.
Where [5] appears, read: recombinant HEK-293 membranes, [125I]RTI-55, read-out: Binding Affinity (IC50, nM) SERT.

Chain of hSERT (P31645 whole entry): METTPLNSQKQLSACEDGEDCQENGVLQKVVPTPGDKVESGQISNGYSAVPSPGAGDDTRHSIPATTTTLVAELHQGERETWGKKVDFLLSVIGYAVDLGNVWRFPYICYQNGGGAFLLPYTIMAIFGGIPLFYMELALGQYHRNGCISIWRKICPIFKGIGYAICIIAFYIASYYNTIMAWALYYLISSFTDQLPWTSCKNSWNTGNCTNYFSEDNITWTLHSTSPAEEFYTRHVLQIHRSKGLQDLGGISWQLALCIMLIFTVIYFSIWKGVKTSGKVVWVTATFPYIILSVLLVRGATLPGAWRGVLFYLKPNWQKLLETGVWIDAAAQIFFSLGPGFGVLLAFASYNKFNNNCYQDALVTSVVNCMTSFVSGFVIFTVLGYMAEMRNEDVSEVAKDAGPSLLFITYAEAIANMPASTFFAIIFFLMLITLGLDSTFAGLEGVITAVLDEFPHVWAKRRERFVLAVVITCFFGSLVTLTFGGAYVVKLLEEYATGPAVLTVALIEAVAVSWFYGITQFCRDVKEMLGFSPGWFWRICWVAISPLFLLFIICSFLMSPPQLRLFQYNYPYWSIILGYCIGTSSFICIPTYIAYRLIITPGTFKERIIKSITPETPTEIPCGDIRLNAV
Chain of hNET (P23975 whole entry): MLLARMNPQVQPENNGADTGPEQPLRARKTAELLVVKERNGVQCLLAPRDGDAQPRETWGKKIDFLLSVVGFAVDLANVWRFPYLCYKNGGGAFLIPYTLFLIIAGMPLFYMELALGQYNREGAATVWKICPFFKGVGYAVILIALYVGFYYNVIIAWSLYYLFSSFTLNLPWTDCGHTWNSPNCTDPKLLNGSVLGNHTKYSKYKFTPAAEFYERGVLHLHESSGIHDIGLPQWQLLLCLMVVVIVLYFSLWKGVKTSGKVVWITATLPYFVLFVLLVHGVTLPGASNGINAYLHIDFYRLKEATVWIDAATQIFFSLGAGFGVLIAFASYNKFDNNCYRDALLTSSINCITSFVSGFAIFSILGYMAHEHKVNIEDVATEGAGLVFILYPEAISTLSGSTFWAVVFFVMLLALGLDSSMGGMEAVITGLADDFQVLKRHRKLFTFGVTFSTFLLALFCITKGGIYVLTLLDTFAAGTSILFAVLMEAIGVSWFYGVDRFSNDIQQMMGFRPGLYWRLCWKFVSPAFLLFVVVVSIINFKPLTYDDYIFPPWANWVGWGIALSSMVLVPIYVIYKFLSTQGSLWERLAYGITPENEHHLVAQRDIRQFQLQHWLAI
Chain of hDAT (Q01959 whole entry): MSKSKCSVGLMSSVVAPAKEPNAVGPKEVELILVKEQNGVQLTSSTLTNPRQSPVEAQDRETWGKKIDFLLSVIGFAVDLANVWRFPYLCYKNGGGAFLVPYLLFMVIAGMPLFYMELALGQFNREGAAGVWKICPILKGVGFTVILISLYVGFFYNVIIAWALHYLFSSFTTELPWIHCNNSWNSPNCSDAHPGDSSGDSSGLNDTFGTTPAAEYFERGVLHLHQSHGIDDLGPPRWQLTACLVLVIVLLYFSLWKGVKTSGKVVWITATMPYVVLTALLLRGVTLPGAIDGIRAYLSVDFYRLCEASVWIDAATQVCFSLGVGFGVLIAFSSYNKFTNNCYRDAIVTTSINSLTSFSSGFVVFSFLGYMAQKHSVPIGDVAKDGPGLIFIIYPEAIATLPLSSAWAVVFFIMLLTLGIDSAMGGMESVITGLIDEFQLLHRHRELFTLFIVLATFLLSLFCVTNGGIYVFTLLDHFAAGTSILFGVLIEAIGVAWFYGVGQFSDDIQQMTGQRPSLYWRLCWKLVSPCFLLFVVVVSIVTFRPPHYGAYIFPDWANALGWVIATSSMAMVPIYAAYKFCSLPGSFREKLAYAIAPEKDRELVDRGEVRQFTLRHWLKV

Consider `Clc1ccc(C23CCN(CC2)Cc2cc(N4CCOCC4)ccc23)cc1` [Example 28, 4-(5-(4-chlorophenyl)-2,5-ethano-2,3,4,5-tetrahydro-1H-benzo[c]azepin-8-yl)morpholine], for which the IC50 turned out to be 438 nM in test [1] (setting [4]), 8 nM in test [2] (setting [5]) and 58.9 nM in test [3].
On the same counts, the results for `Fc1ccc(C23CCN(CC2)Cc2cc(Oc4ccc(C(F)(F)F)nn4)ccc23)cc1` [Example 52, 5-(4-fluorophenyl)-2,5-ethano-8-(6-(trifluoromethyl)pyridazin-3-yloxy)-2,3,4,5-tetrahydro-1H-benzo[c]azepine] are 206 nM, 8.9 nM and 42.8 nM.
As for `CCS(=O)(=O)N1CCN(c2ccc3c(c2)CN2CCC3(c3ccc(Cl)cc3)CC2)CC1` [Example 30, 5-(4-chlorophenyl)-8-(4-(ethylsulfonyl)piperazin-1-yl)-2,5-ethano-2,3,4,5-tetrahydro-1H-benzo[c]azepine], the half-maximal inhibitory concentration (IC50) was found to be 55.8 nM in test [1] (setting [4]), 10 nM in test [2] (setting [5]) and 13.6 nM in test [3].
In the same order, the values of `Fc1ccc(C23CCN(Cc4cc(-c5ccc6ncnn6c5)ccc42)C3)cc1Cl` (single isomer, unassigned) [55(−), 8-([1,2,4]triazolo[1,5-a]pyridin-6-yl)-5-(3-chloro-4-fluorophenyl)-2,5-methano-2,3,4,5-tetrahydro-1H-benzo[c]azepine] are 175 nM, 2.2 nM and 35.3 nM.
In the case of `COc1ccc2c(c1)CN1CCC2(c2ccc(Cl)cc2)C1` (racemic) [Example 1, rac-5-(4-chlorophenyl)-8-methoxy-2,5-methano-2,3,4,5-tetrahydro-1H-benzo[c]azepine], the IC50 in test [1] (setting [4]) turned out to be 675 nM; in test [2] (setting [5]), 74.2 nM.
In the case of `O=c1ccccn1-c1ccc2c(c1)CN1CCC2(c2ccc(Cl)cc2)CC1` [Example 24, 1-(5-(4-chlorophenyl)-2,5-ethano-2,3,4,5-tetrahydro-1H-benzo[c]azepin-8-yl)pyridin-2(1H)-one], the IC50 worked out at 5330 nM in test [1] (setting [4]), 7.3 nM in test [2] (setting [5]) and 856 nM in test [3].
Consider `Clc1ccc(C23CCN(CC2)Cc2cc(-c4ccc5ncnn5c4)ccc23)cc1Cl` [Example 37, 8-([1,2,4]triazolo[1,5-a]pyridin-6-yl)-5-(3,4-dichlorophenyl)-2,5-ethano-2,3,4,5-tetrahydro-1H-benzo[c]azepine], for which the figures for the IC50 in test [1] (setting [4]), in test [2] (setting [5]) and in test [3] were 119 nM, 8.6 nM and 18.5 nM, respectively.
As to `CCS(=O)(=O)N1CCN(c2ccc(C34CCN(CC3)Cc3cc(N5CCN(S(=O)(=O)CC)CC5)ccc34)cc2)CC1` [Example 31, 8-(4-(ethylsulfonyl)piperazin-1-yl)-5-(4-(4-(ethylsulfonyl)piperazin-1-yl)phenyl)-2,5-ethano-2,3,4,5-tetrahydro-1H-benzo[c]azepine], the half-inhibitory concentration (IC50) in test [1] (setting [4]) turned out to be 8300 nM; in test [2] (setting [5]) it was 2320 nM; in test [3] it was 4020 nM.
Regarding `COc1ccc2c(c1)CN1CCC2(c2ccc(Cl)cc2)CC1` [Example 12, 5-(4-chlorophenyl)-8-methoxy-2,5-ethano-2,3,4,5-tetrahydro-1H-2-benzo[c]azepine], the concentration for half-maximal inhibition (IC50) amounted to 881 nM in test [1] (setting [4]), 7.8 nM in test [2] (setting [5]) and 52 nM in test [3].
On the same counts, the results for `Nc1cnc(Oc2ccc3c(c2)CN2CCC3(c3ccc(Cl)cc3)CC2)cn1` [Example 34, 5-(5-(4-chlorophenyl)-2,5-ethano-2,3,4,5-tetrahydro-1H-benzo[c]azepin-8-yloxy)pyrazin-2-amine] are 430 nM, 2.3 nM and 104 nM.
On to `FC(F)(F)c1nnc2ccc(-c3ccc4c(c3)CN3CCC4(c4ccc(Cl)cc4)C3)cn12` (racemic) [Example 4, rac-5-(4-chlorophenyl)-2,5-methano-8-(3-(trifluoromethyl)-[1,2,4]triazolo[4,3-a]pyridin-6-yl)-2,3,4,5-tetrahydro-1H-benzo[c]azepine], for which the 50% inhibitory concentration (IC50) in test [1] (setting [4]) is 70.5 nM; in test [3] it was 603 nM.
Regarding `Fc1ccc(C23CCN(Cc4cc(-c5ccc(C(F)(F)F)nn5)ccc42)C3)cc1Cl` (single isomer, unassigned) [56(+), 5-(3-chloro-4-fluorophenyl)-2,5-methano-8-(6-(trifluoromethyl)pyridazin-3-yl)-2,3,4,5-tetrahydro-1H-benzo[c]azepine], the values for the IC50 in test [1] (setting [4]), in test [2] (setting [5]) and in test [3] were 78.6 nM, 2.4 nM and 11.4 nM, respectively.
For `N#Cc1cccc(-c2ccc3c(c2)CN2CCC3(c3ccc(Cl)cc3)CC2)c1` [Example 27, 3-(5-(4-chlorophenyl)-2,5-ethano-2,3,4,5-tetrahydro-1H-benzo[c]azepin-8-yl)benzonitrile], the concentration for half-maximal inhibition (IC50) in test [1] worked out at 355 nM; in test [2], 3.4 nM; in test [3], 135 nM.
`FC(F)(F)c1ccc(-c2ccc3c(c2)CN2CCC3(c3ccc(Cl)cc3)C2)nn1` (racemic) [Example 5, rac-5-(4-chlorophenyl)-2,5-methano-8-(6-(trifluoromethyl)pyridazin-3-yl)-2,3,4,5-tetrahydro-1H-benzo[c]azepine]: the half-inhibitory concentration (IC50) in test [1] (setting [4]) was determined as 274 nM; in test [2] (setting [5]), 10.1 nM; in test [3], 74.2 nM.
In the same order, the values of `Clc1ccc(C23CCN(Cc4cc(-c5ccc6ncnn6c5)ccc42)C3)cc1` (single isomer, unassigned) [3(+), 8-([1,2,4]triazolo[1,5-a]pyridin-6-yl)-5-(4-chlorophenyl)-2,5-methano-2,3,4,5-tetrahydro-1H-benzo[c]azepine] are 817 nM, 9.4 nM and 340 nM.
For `c1cc(C23CCN(CC2)Cc2cc(N4CCOCC4)ccc23)ccc1N1CCOCC1` [Example 29, 4-(2,5-ethano-5-(4-morpholinophenyl)-2,3,4,5-tetrahydro-1H-benzo[c]azepin-8-yl)morpholine], the IC50 in test [1] (setting [4]) amounted to 5460 nM; in test [2] (setting [5]) it was 328 nM; in test [3], 5260 nM.
Regarding `Oc1ccc2c(c1)CN1CCC2(c2ccc(Cl)cc2)C1` (racemic) [Example 2, rac-5-(4-chlorophenyl)-2,5-methano-2,3,4,5-tetrahydro-1H-benzo[c]azepin-8-ol], the IC50 in test [2] (setting [5]) is 126 nM.
